From US9242987B2, “Heterocyclyl pyrazolopyrimidine analogues as JAK inhibitors” (Cellzome Limited, priority 2009, dated 2016)

How the values were obtained:
JAK2 = target: T1, JAK2 (Homo sapiens, UniProt O60674); assay: Kinobeads assay, JAK2; assay type: binding; details: mixed Molt4/Ramos cell lysate, dot blot detection
T1 construct: endogenous in cells; host or cells: Mixed Molt4/Ramos lysate (1:2)
Outline: (§1)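 Lysate from Molt4 and Ramos cells combined 1:2 at 10 mg/mL total protein met test compound and an aminopyrido-pyrimidine affinity matrix for 3 h in the cold. Captured JAK2 and JAK3, after elution, were measured by specific-antibody dot blot on an infrared system; dose-response curves yielded IC50.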

JAK3 = target: T2, JAK3 (Homo sapiens, UniProt P52333); assay: Kinobeads assay, JAK3; assay type: binding; details: mixed Molt4/Ramos cell lysate, dot blot detection
T2 construct: endogenous in cells; host or cells: Mixed Molt4/Ramos lysate (1:2)
T2 sequence (P52333 1-1124): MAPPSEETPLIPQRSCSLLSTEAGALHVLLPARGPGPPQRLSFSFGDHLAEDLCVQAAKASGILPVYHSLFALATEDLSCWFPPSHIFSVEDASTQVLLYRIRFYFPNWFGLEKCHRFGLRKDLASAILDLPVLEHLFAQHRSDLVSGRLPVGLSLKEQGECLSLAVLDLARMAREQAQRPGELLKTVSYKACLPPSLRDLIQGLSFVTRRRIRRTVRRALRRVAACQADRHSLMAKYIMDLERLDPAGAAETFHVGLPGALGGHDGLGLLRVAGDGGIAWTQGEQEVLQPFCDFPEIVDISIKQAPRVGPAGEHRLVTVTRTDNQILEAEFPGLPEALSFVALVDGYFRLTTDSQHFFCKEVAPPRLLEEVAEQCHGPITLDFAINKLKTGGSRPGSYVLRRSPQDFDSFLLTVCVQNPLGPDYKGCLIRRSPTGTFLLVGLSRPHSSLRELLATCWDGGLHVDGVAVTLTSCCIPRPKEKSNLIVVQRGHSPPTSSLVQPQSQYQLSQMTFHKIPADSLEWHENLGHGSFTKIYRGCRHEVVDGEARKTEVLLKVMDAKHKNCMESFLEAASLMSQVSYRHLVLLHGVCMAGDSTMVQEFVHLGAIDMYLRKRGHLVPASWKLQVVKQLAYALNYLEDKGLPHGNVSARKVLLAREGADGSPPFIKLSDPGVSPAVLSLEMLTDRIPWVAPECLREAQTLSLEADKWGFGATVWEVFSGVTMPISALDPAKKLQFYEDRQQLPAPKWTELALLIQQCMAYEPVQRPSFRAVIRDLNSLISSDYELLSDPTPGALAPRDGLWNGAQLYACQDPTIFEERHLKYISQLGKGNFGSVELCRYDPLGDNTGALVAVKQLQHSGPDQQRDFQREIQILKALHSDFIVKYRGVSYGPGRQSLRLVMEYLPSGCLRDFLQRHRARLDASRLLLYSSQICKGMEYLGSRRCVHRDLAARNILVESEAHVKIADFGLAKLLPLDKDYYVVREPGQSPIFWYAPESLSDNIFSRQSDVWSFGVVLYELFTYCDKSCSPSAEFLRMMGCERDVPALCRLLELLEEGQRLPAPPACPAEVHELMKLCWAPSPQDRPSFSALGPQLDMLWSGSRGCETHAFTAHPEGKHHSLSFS
Outline: as §1

T1 sequence (O60674 whole entry): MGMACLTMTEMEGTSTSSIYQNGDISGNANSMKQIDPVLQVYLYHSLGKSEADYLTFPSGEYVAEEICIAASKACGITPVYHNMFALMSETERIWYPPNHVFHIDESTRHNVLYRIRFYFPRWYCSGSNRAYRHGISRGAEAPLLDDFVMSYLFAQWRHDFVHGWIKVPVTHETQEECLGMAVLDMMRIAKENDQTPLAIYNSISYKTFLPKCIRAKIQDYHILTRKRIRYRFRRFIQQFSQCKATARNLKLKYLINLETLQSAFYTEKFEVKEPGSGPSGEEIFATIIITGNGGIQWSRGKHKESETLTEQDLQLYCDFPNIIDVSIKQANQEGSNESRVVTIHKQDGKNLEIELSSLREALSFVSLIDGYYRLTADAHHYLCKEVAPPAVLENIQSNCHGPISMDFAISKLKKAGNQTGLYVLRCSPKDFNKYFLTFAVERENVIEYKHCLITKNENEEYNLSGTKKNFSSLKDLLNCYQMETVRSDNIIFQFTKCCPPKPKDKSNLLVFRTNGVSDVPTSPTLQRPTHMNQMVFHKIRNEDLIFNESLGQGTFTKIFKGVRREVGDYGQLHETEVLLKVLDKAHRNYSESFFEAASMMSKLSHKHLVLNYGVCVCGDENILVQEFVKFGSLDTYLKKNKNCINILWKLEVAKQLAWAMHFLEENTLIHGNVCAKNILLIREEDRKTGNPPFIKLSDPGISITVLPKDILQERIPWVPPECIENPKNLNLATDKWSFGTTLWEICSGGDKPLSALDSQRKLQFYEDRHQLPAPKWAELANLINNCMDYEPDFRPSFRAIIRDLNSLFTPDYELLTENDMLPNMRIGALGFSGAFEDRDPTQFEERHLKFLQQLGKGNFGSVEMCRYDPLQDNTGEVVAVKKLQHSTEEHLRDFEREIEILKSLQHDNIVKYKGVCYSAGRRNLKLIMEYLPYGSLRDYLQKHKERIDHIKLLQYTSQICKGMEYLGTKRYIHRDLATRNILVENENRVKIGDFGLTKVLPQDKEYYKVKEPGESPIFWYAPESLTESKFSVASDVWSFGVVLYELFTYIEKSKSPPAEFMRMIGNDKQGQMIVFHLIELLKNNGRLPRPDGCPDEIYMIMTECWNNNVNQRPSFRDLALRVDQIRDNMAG

SMILES	IC50 (JAK2) [nM]	IC50 (JAK3) [nM]
COc1nn(C)cc1Nc1ncc2cnn(Cc3ccccc3)c2n1 [Example 105, 1-Benzyl-N-(3-methoxy-1-methyl-1H-pyrazol-4-yl)-1H-pyrazolo[3,4-d]pyrimidin-6-amine]	≥ 10000	< 100
COc1nn(CCO)cc1Nc1ncc2cnn(Cc3ccccc3)c2n1 [Example 106, 2-(4-((1-Benzyl-1H-pyrazolo[3,4-d]pyrimidin-6-yl)amino)-3-methoxy-1H-pyrazol-1-yl)ethanol]	1000 to 10000	< 100
Cn1cc(Nc2ncc3cnn(Cc4cccc(C#N)c4F)c3n2)cn1 [Example 107, 2-Fluoro-3-((6-((1-methyl-1H-pyrazol-4-yl)amino)-1H-pyrazolo[3,4-d]pyrimidin-1-yl)methyl)benzonitrile]	1000 to 10000	< 100
Cn1cc(Nc2ncc3cnn(Cc4cccc(F)c4C#N)c3n2)cn1 [Example 108, 2-Fluoro-6-((6-((1-methyl-1H-pyrazol-4-yl)amino)-1H-pyrazolo[3,4-d]pyrimidin-1-yl)methyl)benzonitrile]	1000 to 10000	100 to 1000
Cc1c(Nc2ncc3cnn(Cc4ccccc4)c3n2)cnn1C [Example 109, 1-Benzyl-N-(1,5-dimethyl-1H-pyrazol-4-yl)-1H-pyrazolo[3,4-d]pyrimidin-6-amine]	≥ 10000	100 to 1000
Cc1nn(C)cc1Nc1ncc2cnn(Cc3ccccc3)c2n1 [Example 110, 1-Benzyl-N-(1,3-dimethyl-1H-pyrazol-4-yl)-1H-pyrazolo[3,4-d]pyrimidin-6-amine]	≥ 10000	100 to 1000
Cn1cc(Nc2ncc3cnn(Cc4ccccc4C4CC4)c3n2)cn1 [Example 111, 1-(2-Cyclopropylbenzyl)-N-(1-methyl-1H-pyrazol-4-yl)-1H-pyrazolo[3,4-d]pyrimidin-6-amine]	1000 to 10000	< 100
CC(C)(O)Cn1cc(Nc2ncc3cnn(Cc4ccccc4F)c3n2)cn1 [Example 112, 1-(4-((1-(2-Fluorobenzyl)-1H-pyrazolo[3,4-d]pyrimidin-6-yl)amino)-1H-pyrazol-1-yl)-2-methylpropan-2-ol]	1000 to 10000	< 100
Cc1nn(CCO)cc1Nc1ncc2cnn(Cc3ccccc3)c2n1 [Example 113, 2-(4-((1-Benzyl-1H-pyrazolo[3,4-d]pyrimidin-6-yl)amino)-3-methyl-1H-pyrazol-1-yl)ethanol]	1000 to 10000	< 100
Cn1cc(Nc2ncc3cnn(Cc4ccccc4OCc4ccccc4)c3n2)cn1 [Example 114, 1-(2-(Benzyloxy)benzyl)-N-(1-methyl-1H-pyrazol-4-yl)-1H-pyrazolo[3,4-d]pyrimidin-6-amine]	≥ 10000	100 to 1000
Cc1c(F)cccc1Cn1ncc2cnc(Nc3cnn(C)c3)nc21 [Example 115, 1-(3-Fluoro-2-methylbenzyl)-N-(1-methyl-1H-pyrazol-4-yl)-1H-pyrazolo[3,4-d]pyrimidin-6-amine]	1000 to 10000	< 100
Cc1cccc(F)c1Cn1ncc2cnc(Nc3cnn(C)c3)nc21 [Example 117, 1-(2-Fluoro-6-methylbenzyl)-N-(1-methyl-1H-pyrazol-4-yl)-1H-pyrazolo[3,4-d]pyrimidin-6-amine]	1000 to 10000	< 100
FC(F)Cn1cc(Nc2ncc3cnn(Cc4ccccc4)c3n2)cn1 [Example 118, 1-Benzyl-N-(1-(2,2-difluoroethyl)-1H-pyrazol-4-yl)-1H-pyrazolo[3,4-d]pyrimidin-6-amine]	1000 to 10000	< 100
COc1nn(CC(F)F)cc1Nc1ncc2cnn(Cc3ccccc3)c2n1 [Example 119, 1-Benzyl-N-(1-(2,2-difluoroethyl)-3-methoxy-1H-pyrazol-4-yl)-1H-pyrazolo[3,4-d]pyrimidin-6-amine]	≥ 10000	100 to 1000
Cc1nn(CC(F)F)cc1Nc1ncc2cnn(Cc3ccccc3)c2n1 [Example 120, 1-Benzyl-N-(1-(2,2-difluoroethyl)-3-methyl-1H-pyrazol-4-yl)-1H-pyrazolo[3,4-d]pyrimidin-6-amine]	≥ 10000	100 to 1000
Cn1cc(Nc2ncc3cnn(-c4cccc(S(N)(=O)=O)c4)c3n2)cn1 [Example 122, 3-(6-((1-Methyl-1H-pyrazol-4-yl)amino)-1H-pyrazolo[3,4-d]pyrimidin-1-yl)benzenesulfonamide]	1000 to 10000	100 to 1000
CC(C)S(=O)(=O)Nc1ccccc1Cn1ncc2cnc(Nc3cnn(C)c3)nc21 [Example 126, N-(2-((6-((1-Methyl-1H-pyrazol-4-yl)amino)-1H-pyrazolo[3,4-d]pyrimidin-1-yl)methyl)phenyl)propane-2-sulfonamide]	1000 to 10000	< 100
NS(=O)(=O)c1ccc(-n2ncc3cnc(Nc4cnn(CC(F)F)c4)nc32)cc1 [Example 127, 4-(6-((1-(2,2-Difluoroethyl)-1H-pyrazol-4-yl)amino)-1H-pyrazolo[3,4-d]pyrimidin-1-yl)benzenesulfonamide]	1000 to 10000	100 to 1000
Fc1ccccc1Cn1ncc2cnc(Nc3cnn(CC(F)F)c3)nc21 [Example 128, N-(1-(2,2-Difluoroethyl)-1H-pyrazol-4-yl)-1-(2-fluorobenzyl)-1H-pyrazolo[3,4-d]pyrimidin-6-amine]	1000 to 10000	< 100

The next lines start with the values.

IC50 (JAK2) [nM]	IC50 (JAK3) [nM]	SMILES
100 to 1000	< 100	COc1cc(F)cc(Cn2ncc3cnc(Nc4cnn(C)c4)nc32)c1 [Example 104, 1-(3-Fluoro-5-methoxybenzyl)-N-(1-methyl-1H-pyrazol-4-yl)-1H-pyrazolo[3,4-d]pyrimidin-6-amine]
100 to 1000	< 100	Cc1ccc(F)cc1Cn1ncc2cnc(Nc3cnn(C)c3)nc21 [Example 116]
100 to 1000	< 100	NS(=O)(=O)c1ccc(-n2ncc3cnc(Nc4cnn(CCO)c4)nc32)cc1 [Example 121, 4-(6-((1-(2-Hydroxyethyl)-1H-pyrazol-4-yl)amino)-1H-pyrazolo[3,4-d]pyrimidin-1-yl)benzenesulfonamide]
100 to 1000	< 100	CCN(CC)CCn1cc(Nc2ncc3cnn(Cc4ccccc4F)c3n2)cn1 [Example 123, N-(1-(2-(Diethylamino)ethyl)-1H-pyrazol-4-yl)-1-(2-fluorobenzyl)-1H-pyrazolo[3,4-d]pyrimidin-6-amine]
100 to 1000	< 100	Fc1ccccc1Cn1ncc2cnc(Nc3cnn(CCN4CCOCC4)c3)nc21 [Example 124, 1-(2-Fluorobenzyl)-N-(1-(2-morpholinoethyl)-1H-pyrazol-4-yl)-1H-pyrazolo[3,4-d]pyrimidin-6-amine]
100 to 1000	< 100	CN(C)CCCn1cc(Nc2ncc3cnn(Cc4ccccc4F)c3n2)cn1 [Example 125, N-(1-(3-(Dimethylamino)propyl)-1H-pyrazol-4-yl)-1-(2-fluorobenzyl)-1H-pyrazolo[3,4-d]pyrimidin-6-amine]
100 to 1000	< 100	Fc1ccc(F)c(Cn2ncc3cnc(Nc4cnn(CC(F)F)c4)nc32)c1 [Example 129, 1-(2,5-Difluorobenzyl)-N-(1-(2,2-difluoroethyl)-1H-pyrazol-4-yl)-1H-pyrazolo[3,4-d]pyrimidin-6-amine]
100 to 1000	< 100	N#Cc1ccc(F)cc1Cn1ncc2cnc(Nc3cnn(CC(F)F)c3)nc21 [Example 130, 2-((6-((1-(2,2-Difluoroethyl)-1H-pyrazol-4-yl)amino)-1H-pyrazolo[3,4-d]pyrimidin-1-yl)methyl)-4-fluorobenzonitrile]
